According to PMC11945486, “TAS1R2/TAS1R3 Single-Nucleotide Polymorphisms Affect Sweet Taste Receptor Activation by Sweeteners: The SWEET Project” (Nutrients, 2025):

Molecular target: T1, mTAS1R2-WT/mTAS1R3-I60T (Mus musculus, UniProt Q925D8+Q925I4, I60T)
T1 construct: expressed in transfected cells; host or cells: HEK293T-Gα16gust44
T1 sequence (Q925I4 20-843): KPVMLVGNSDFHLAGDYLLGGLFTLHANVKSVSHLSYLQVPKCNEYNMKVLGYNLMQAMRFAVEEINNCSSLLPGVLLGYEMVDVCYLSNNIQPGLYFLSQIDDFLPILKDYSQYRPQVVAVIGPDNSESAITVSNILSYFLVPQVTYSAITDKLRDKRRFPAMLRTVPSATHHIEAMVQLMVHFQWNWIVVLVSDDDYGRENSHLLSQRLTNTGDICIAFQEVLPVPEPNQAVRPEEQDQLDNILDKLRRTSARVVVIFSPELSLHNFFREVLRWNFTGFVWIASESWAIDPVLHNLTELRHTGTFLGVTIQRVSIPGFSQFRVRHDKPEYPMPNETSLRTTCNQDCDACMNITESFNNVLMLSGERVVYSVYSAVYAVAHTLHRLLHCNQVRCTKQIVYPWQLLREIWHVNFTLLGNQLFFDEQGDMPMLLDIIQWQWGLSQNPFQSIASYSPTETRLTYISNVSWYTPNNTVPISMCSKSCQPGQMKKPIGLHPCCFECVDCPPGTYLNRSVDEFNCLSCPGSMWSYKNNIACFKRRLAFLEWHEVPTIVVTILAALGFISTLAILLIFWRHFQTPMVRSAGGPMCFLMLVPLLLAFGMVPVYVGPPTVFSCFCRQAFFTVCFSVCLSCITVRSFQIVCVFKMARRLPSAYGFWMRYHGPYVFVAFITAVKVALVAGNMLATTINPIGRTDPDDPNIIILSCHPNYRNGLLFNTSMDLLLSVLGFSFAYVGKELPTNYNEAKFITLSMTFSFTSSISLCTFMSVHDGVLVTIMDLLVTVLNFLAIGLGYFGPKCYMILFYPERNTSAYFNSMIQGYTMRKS
T1 sequence (Q925D8 21-858 I60T): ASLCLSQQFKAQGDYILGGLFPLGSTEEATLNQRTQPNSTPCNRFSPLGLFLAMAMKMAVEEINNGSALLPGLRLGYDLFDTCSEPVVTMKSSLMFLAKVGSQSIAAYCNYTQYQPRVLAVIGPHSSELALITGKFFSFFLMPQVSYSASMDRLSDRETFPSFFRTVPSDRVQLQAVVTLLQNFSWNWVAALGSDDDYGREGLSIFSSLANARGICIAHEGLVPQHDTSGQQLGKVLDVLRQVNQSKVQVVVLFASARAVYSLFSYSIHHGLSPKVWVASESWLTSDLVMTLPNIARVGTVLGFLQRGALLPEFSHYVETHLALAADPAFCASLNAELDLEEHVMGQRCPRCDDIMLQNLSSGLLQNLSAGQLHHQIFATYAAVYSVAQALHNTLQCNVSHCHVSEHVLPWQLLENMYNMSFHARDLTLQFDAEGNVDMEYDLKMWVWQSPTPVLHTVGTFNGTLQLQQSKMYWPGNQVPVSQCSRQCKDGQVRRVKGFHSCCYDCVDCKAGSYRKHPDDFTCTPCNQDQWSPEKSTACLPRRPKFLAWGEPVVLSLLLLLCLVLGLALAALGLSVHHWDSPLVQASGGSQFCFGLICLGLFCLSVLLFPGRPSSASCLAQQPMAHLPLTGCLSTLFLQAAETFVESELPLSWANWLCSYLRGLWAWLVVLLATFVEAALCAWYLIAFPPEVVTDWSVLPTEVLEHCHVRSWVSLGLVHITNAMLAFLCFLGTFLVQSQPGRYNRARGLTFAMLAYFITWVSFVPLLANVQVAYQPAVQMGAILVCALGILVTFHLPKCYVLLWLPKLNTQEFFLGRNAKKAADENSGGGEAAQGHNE
Assay: Calcium mobilisation assay, HEK293T-Gα16gust44 cells, mouse TAS1R3-I60T variant
Type: cell-based
Conditions: "-": no activation; for EC50 / Max ΔF/F0: mTAS1R2-WT + mTAS1R3-I60T; for Max ΔF/F0: maximal signal amplitude; for R1 = Variant EC50/WT EC50: mTAS1R3-I60T vs mTAS1R3-WT
Procedure: The HEK293T cells were kindly provided by Jay P. Slack (Givaudan Flavors Corporation; Cincinnati, OH, USA). HEK293T cells stably transfected with Gα16gust44 [43, 67] were seeded in poly-D-lysine-coated clear-bottom black 96-well plates (0.35 × 10^5 cells/well) in high-glucose DMEM supplemented with 2 mM GlutaMAX, 10% dialysed foetal bovine serum with penicillin/streptomycin and G418 (400 μg/mL) at 37 °C and 6.3% CO2 in a humidified atmosphere as previously reported. […] As a negative control, HEK293T cells were mock-transfected with the empty expression vector. After a further 24 h of incubation, the HEK293T cells were washed with C1 buffer (130 mM NaCl, 5 mM KCl, 10 mM HEPES pH 7.4 and 2 mM CaCl2). The 96-well plates containing the cells were then stimulated with sweet-tasting compounds. […] Different concentration ranges were tested depending on the sweet compound injected. The Ca^2+ changes were expressed as fractional changes in fluorescent light intensity: ΔF/F = (F − F0)/F0, where F was the fluorescent light intensity at each point, and F0 was the value of emitted fluorescent light prior to stimulus application. To calculate dose–response relationships, the changes in fluorescence upon stimulus application were averaged, mock-subtracted and baseline-corrected. The dose–response data obtained were adjusted using a 4-parameter logistic equation. The half-maximal effective concentrations (EC50 values) and maximal signal amplitudes were calculated using SigmaPlot software (version 15.0) (Systat Software; San Jose, CA, USA).
HEK293T-Gα16gust44 cells were transiently cotransfected with pcDNA6-MAX-mTAS1R2-FLAG, pcDNA4-MAX-mTAS1R3-WT-FLAG or pcDNA4-MAX-mTAS1R3-I60T-FLAG, and pCMV-GCaMP5G as previously described in detail. After 24 h, the cells were washed with C1 buffer and stimulated with a logarithmically increasing range of sweetener concentrations. Calcium responses during automated application were monitored using a FlexStation®3 Multi-Mode microplate reader. The dose–response curves, EC50 values and maximal signal amplitudes were calculated as previously described.
For in vitro calcium mobilisation assay performed on hTAS1R2-SNPs, hTAS1R3-SNPs and mTAS1R3-I60T, 6 to 7 concentrations were tested for each sweet compound, plus buffer alone. All concentration–receptor combinations were measured in duplicate, and each experiment was repeated at least 4 times (8 wells/concentration). Results were expressed for each concentration as ΔF/F mean ± SEM and represented as dose–response curves.

SMILES | EC50 [µM] | Max ΔF/F0 | R1 = Variant EC50/WT EC50
OC[C@H]1O[C@H](O[C@]2(CCl)O[C@H](CCl)[C@@H](O)[C@@H]2O)[C@H](O)[C@@H](O)[C@H]1Cl [Sucralose] | 1520 ± 56 | 1.47 ± 0.03 | 2.0
C[C@H](CC[C@@H](O[C@@H]1O[C@H](CO[C@@H]2O[C@H](CO)[C@@H](O)[C@H](O)[C@H]2O)[C@@H](O)[C@H](O)[C@H]1O[C@@H]1O[C@H](CO)[C@@H](O)[C@H](O)[C@H]1O)C(C)(C)O)[C@H]1CC[C@@]2(C)[C@@H]3CC=C4[C@@H](CC[C@H](O[C@@H]5O[C@H](CO[C@@H]6O[C@H](CO)[C@@H](O)[C@H](O)[C@H]6O)[C@@H](O)[C@H](O)[C@H]5O)C4(C)C)[C@]3(C)[C@H](O)C[C@]12C [Mogroside V, mogroside V] | 225 ± 25 | 0.50 ± 0.03 | 1.7
CC1=CC(=O)NS(=O)(=O)O1 [Acesulfame K, acesulfame K] | 744 ± 19 | 1.03 ± 0.02 | 1.7
C=C1C[C@@]23CC[C@H]4[C@@](C)(CCC[C@@]4(C)C(=O)O[C@@H]4O[C@H](CO)[C@@H](O)[C@H](O[C@@H]5O[C@H](CO)[C@@H](O)[C@H](O)[C@H]5O)[C@H]4O[C@@H]4O[C@H](CO)[C@@H](O)[C@H](O)[C@H]4O)[C@@H]2CC[C@]1(O[C@@H]1O[C@H](CO)[C@@H](O)[C@H](O[C@@H]2O[C@H](CO)[C@@H](O)[C@H](O)[C@H]2O)[C@H]1O[C@@H]1O[C@H](CO)[C@@H](O)[C@H](O)[C@H]1O)C3 [Rebaudioside M, rebaudioside M] | 73 ± 2 | 0.71 ± 0.01 | 1.7
